US7256174B2, “Somatostatin and somatostatin agonists for treating insulin insensitivity and Syndrome X” (Societe de Conseils de Recherches et d'Applications …, priority 1997, dated 2007)
Bridge positions count the residues as written; N and C are the ends. Square brackets hold non-standard residues; d marks the D form. Peptide text beside a SMILES is read from it.

Assays:
[1] = Lipidemia study, plasma glycerol and triglycerides; assay type: in vivo, Obese (fa/fa) Zucker rats
Description: Obese (fa/fa) Zucker rats were treated as in example 1 above. On the last day of treatment (day 6), food was removed at 5:00 p.m., and the rats were fasted overnight. At 9:00 a.m. the next day, the animals were subjected to a glucose challenge, given as 0.8 gram/kg of glucose orally. Periodic 400 μl of blood samples were taken from the tail vein (Peterson, R. G., ILAR News, 32:16-19 (1990)) 60 min. and 30 min. before and at 30, 60, 90, and 120 min. after the administration of the glucose challenge (0.8 gram/kg orally). Aprotinin (Traysylol, Bayer UK, Hayward's Health, W. Sussex, U.K.) and heparin (Sigma Chemical Co., Poole, Dorset, U.K.) were added to the blood samples to a final concentration of 400 KIU/ml and 100 units/ml, respectively. Plasma fractions were prepared from these samples by centrifugation at 4000×G in a microfuge, for the estimation of triglycerides and glycerol. Samples were then stored at −80° C. until assayed.
Plasma glycerol and triglycerides were determined using the Sigma Enzymatic (Tinder) calorimetric assay kit (Cat #337-B, Sigma Chemical Co., Poole, Dorset, U.K.) and measuring absorbance at 540 nm in a spectrophotometer.

[2] = Insulin sensitivity study, oral glucose challenge after chronic treatment; assay type: in vivo, fatty (fa/fa) Zucker rats; settings: 3 mg/kg s.c. twice daily, 7 days
Description: Male fatty Zucker rats (Harlan-Olac, Bicester, Oxon, U.K.), which were 15-17 weeks old, were randomly divided into two groups. The animals were house in pairs in a normal 12 hour light:12 hour darkness cycle at 20±2° C. and fed a standard laboratory rat diet (Beekay rat and mouse diet, Bantin & Kingman, Hull, Humberside, U.K.) ad libitum. For the group assigned to receive drug treatment, the rats received BIM-23268C at 3 mg/kg, by subcutaneous injection, twice a day at 10:00 AM and 5:00 PM. The other group, the control group, was treated with a subcutaneous injection of 0.1 ml/100 g of saline twice a day at 10:00 AM and 5:00 PM. […] On the last day of treatment, at 5:00 PM food was removed, and the rats were fasted overnight.
A method for assessing insulin sensitivity is to administer an oral glucose challenge and monitoring the secretion of insulin and disposal of glucose from the blood stream over a 240 min period (Bergman, R. N., et al., Endocrine Review 6:45-86 (1985)). […] 20 μl blood samples were taken from tail vein (Abdel-Halim, S. M., et al., Diabetes 43:281-288 (1994)) at −60 min, −30 min, 0 min, 30 min, 60 min, 90 min, 120 min, and 240 min.
The 20 μl samples were taken into 380 μl of hemolysis reagents (Sigma, Poole, Dorset, UK) containing 50 mg/liter of digitonin (Cat# D-1407) and 100 mg/liter of Maleimide (M-3766). From this, 100 μl of the hemolysed blood sample was added to 0.9 ml of Tinder reagent (Sigma Enzymatic calorimetric assay for blood glucose, Cat# 315-100, Sigma Chemical Co. Ltd, Poole, Dorset, UK). Blood glucose was determined according to vendor's recommendation at 505 nm.
Insulin was measured by the conventional radioimmunoassay method as described (Dunmore, S., & Beloff-Chain, A., J Endocrinol. 92:15-21 (1982)). Samples were assayed in triplicates with a 1:30000 dilution of an insulin antiserum (from guinea pig)raised in the laboratory (Dunmore, S. J., et al., J. Endocrinol. 137:375-381 (1993), and using ^125I-labelled bovine insulin, iodinated by the chloramine T method (Sambrook, et al., Molecular Cloning—A Laboratory Manual, Ed. 2., Cold Spring Harbor Laboratory Press, 1989). Rat insulin (2000U/0.1 ml, Novo Nordisk Laboratories, Basingstoke, Hants, U.K.) was used as a standard in the assay. The standards and samples were diluted in assay buffer containing NaH2PO4 5.7 g/L, bovine serum albumin (Sigma A4378, Sigma Chemical Co. Ltd., Poole, Dorset, UK) 5.0 g/L, NaN3 1.0 g/L buffered to pH 7.4). Antibody-bound insulin was separated on from free insulin by the addition of a second antibody (donkey anti-guinea pig Ig) coated on cellulose, Sac-Cel (IDS, Boldon, Tyne & Wear, UK). The antibody-bound insulin precipitate was separated by centrifugation. Counts bound were measured on an LKB Rackgamma solid scintillation counter.

[3] = Weight loss study, chronic (6 day) treatment; settings: 3 mg/kg s.c. twice a day
[4] = 3 mg/kg s.c. twice a day, six days, samples 30 and 60 minutes before oral glucose challenge
[5] = throughout the 2-hour test period after oral glucose challenge
[6] = 0.8 g/kg oral glucose challenge

SMILES: C[C@@H](O)[C@@H]1NC(=O)[C@H](CCCCN)NC(=O)[C@@H](Cc2c[nH]c3ccccc23)NC(=O)[C@H](Cc2ccccc2)NC(=O)[C@H](Cc2ccccc2)NC(=O)[C@@H](N)CSSC[C@@H](C(N)=O)NC(=O)[C@H](Cc2ccccc2)NC1=O [BIM-23268, H-Cys-Phe-Phe-D-Trp-Lys-Thr-Phe-Cys-NH2] (H-CFF[dW]KTFC-NH2; disulfide 1-8)
- plasma glycerol [1, 4]: significantly lowered
- plasma triglycerides [1, 4]: significantly lowered
- reducing hypertriglyceridemia ([1]; 6-day treatment at 3 mg/kg s.c. twice a day): effective
- plasma glycerol [1, 5]: significantly lower
- plasma triglycerides [1, 5]: significantly lower
- hyperinsulinemia [2]: suppressing
- insulin-sensitivity [2]: improvement
- glucose tolerance [2, 6]: did not show an impairment
- plasma glucose profile versus untreated group [2, 6]: not significantly different
- glucose stimulated insulin secretion to the glucose challenge ([2]; 0.8 g/kg oral glucose challenge, vs saline control): significant suppression
- body weight gain versus control ([3]; six days): lower
- toxic effect / appearance of treated group ([3]; six days): appeared healthy
- average food consumption ([3]; six days (control 26.0)): 25.9 g/rat/day
- difference in amount of food consumed over the entire treatment period ([3]; six days, vs control): no difference
- group mean weight after six days ([3]; after six days (control 414.09 to 418.89)): 413.6
- group mean weight at the start of the trial ([3]; start of trial): 413.6
